Experimental data as given in patent publication US20060020027A1, “Use of curcumanoids as histone acetyltransferases (HATs) inhibitors” (priority 2004, published 2006).

Columns and labels:
HeLa cells = experiment: Apoptosis assay (Hoechst staining, nuclear fragmentation); type: cell-based; settings: 24 hours exposure to 75-100 μM
Method: Apoptosis assay: Curcumin-induced apoptosis was monitored by the extent of nuclear fragmentation. Nuclear fragmentation was visualized by Hoechst staining of apoptotic nuclei. The apoptotic cells were collected by centrifugation, washed with PBS and fixed in 4% paraformaldehyde for 20 minutes at room tempertature. Subsequently the cells were washed and resuspended in 20 μl PBS before depositing it on poly lysine-coated coverslips and were left to adhere on cover slips for 30 min at room temperature after which the cover slips were washed twice with PBS. The adhered cells were then incubated with 0.1% Triton X-100 for 5 min at room temperature and rinsed with PBS for three times. The coverslips were treated with Hoechst 33258 for 30 minutes at 37° C., rinsed with PBS and mounted them on slides with glycerol-PBS and processed as described previously (29).
Arrows indicate apoptotic nuclear fragmentation

PCAF = PCAF (Homo sapiens, UniProt Q92831); experiment: Histone acetyltransferase (HAT) assay with PCAF; type: biochemical; settings: 100 μM curcumin
Method: (§1) Histone acetyltransferase Assay: HAT assays were performed as described previously (30). […] The reaction mixture was then blotted onto P-81 (Whatman) filter paper and radioactive counts were recorded on a Wallac 1409 liquid scintillation counter. The radiolabeled acetylated histones were visualized by resolving on 15% SDS-polyacrylamide gel and subjected to fluorography followed by autoradiography.

[1] = system: histone methyltransferase enzymes of HeLa nuclear extract; experiment: Histone methyltransferase assay with HeLa nuclear extract; type: biochemical; settings: 50 and 100 μM curcumin
Method: (§2) Histone methyltransferase and deacetylase Assays: Histone methyltransferase assays were performed in a 30 μl reaction. […] After the initial incubation, 1 μl of 8.3 Ci/mmol ^3H—S— Adenosyl Methionine was added to the reaction mixtures and the incubation continued for 1 hour (in the case of nuclear extract) or for 15 minutes (in the case of G9a). The reaction products were TCA precipitated, resolved on 15% SDS-PAGE and subjected to fluorography followed by autoradiography.
(§3) The reaction products were TCA precipitated, resolved on 15% SDS-PAGE and subjected to fluorography followed by autoradiography.

p300 = p300 (Homo sapiens, UniProt Q09472); experiment: Histone acetyltransferase (HAT) assay, filter binding and gel, with p300; type: biochemical; settings: varying acetyl CoA or histone concentration; 25 and 30 μM curcumin
Text: The results were plotted using the Graph Pad Prism software.

[2] = target: T1, lysine methyltransferase G9a (Homo sapiens, UniProt Q96KQ7); experiment: Histone methyltransferase assay with G9a; type: biochemical; settings: 50 and 100 μM curcumin
T1 construct: bacterially expressed HMTase domain of G9a fused to GST (31); GST; made in house
T1 sequence (Q96KQ7 830-1209 limits assumed): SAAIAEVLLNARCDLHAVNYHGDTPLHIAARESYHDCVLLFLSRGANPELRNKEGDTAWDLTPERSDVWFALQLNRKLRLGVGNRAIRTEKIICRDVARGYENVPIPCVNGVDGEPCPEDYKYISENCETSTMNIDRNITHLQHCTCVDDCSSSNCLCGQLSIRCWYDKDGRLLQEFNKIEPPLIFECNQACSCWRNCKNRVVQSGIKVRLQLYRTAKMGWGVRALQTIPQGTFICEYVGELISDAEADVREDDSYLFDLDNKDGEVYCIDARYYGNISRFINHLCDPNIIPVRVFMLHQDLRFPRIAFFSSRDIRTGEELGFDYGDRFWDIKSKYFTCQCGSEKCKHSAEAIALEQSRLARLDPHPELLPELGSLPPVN
Method: as §2, §3

CBP = CBP (Homo sapiens, UniProt Q92793); experiment: Histone acetyltransferase (HAT) assay with CBP; type: biochemical; settings: core histones
Method: as §1

[3] = target: T2, p300 (substrate HIV-Tat protein) (Homo sapiens, UniProt Q09472); experiment: Acetylation of Tat protein by p300 (HAT assay); type: biochemical; settings: […] and 50 μM curcumin
T2 construct: made in house
Method: as §1
(B), the percentage of acetylation was calculated in each of the cases by accounting for the corrections of acetylation in the case of Tat alone.

[4] = system: transcription from DNA template; experiment: In vitro transcription from DNA template; type: biochemical; settings: even at 300 μM
Method: (§4) In vitro Transcription Assay: Transcription assays were carried out as described elsewhere (9) with the necessary modifications. The reconstituted chromatin template (containing 30 ng DNA) or an equimolar amount of histone—free DNA was incubated with 50 ng of activator (Gal4-VP16) in a buffer containing 4 mM HEPES (pH 7.8), 20 mM KCl, 2 mM DTT, 0.2 mM PMSF, 10 mM sodium butyrate, 0.1 mg/ml bovine serum albumin, 2% glycerol. […] HeLa nuclear extract (5 μl, which contains 8 mg/ml protein) was added then to initiate the preinitiation complex formation. Transcription reaction was started by the addition of NTP-mix and α-[^32P] UTP after the preinitiation complex formation and incubated further for 40 min at 30° C. For loading control separate reaction was setup with ˜25 ng of supercoiled ML200 DNA, and the transcription assay was carried out as described above, without the addition of the activator (Gal4-VP16) and 2 μl of this reaction was added to each of the transcription reactions. […] Transcripts were analysed by 5% Urea-PAGE and quantification of transcription was done by phosphoimager (Fuji) analysis. […]
(§5) (A), Schematic representation of the in vitro transcription protocol. […] The in vitro transcription reaction mixtures were analyzed on 5% urea-acrylamide gel and further processed by autoradiography.

[5] = system: acetylation of p53 in 293 T cells; experiment: p53 acetylation in transfected cells (immunoprecipitation, western blotting); type: cell-based; settings: 24 hours
Method: 293 T cells were transfected with CMV-p53 and CMV-p300 using Lipofectamine 2000 reagent (Invitrogen) according to the manufacturer's instructions. […] The cells were harvested using RIPA buffer (150 mM NaCl, 50 mM Tris pH 7.4, 1% NP40, 0.1% Sodium deoxycholate, 1 mM EDTA, 0.5 μg/ml leupeptin, 0.5 μg/ml aprotinin and 0.5 μg/ml pepstatin) and the p53 protein was immunoprecipitated from the lysates using mouse monoclonal anti-p53 antibody, DO1 (oncogene). The immunocomplexes were bound on protein G-sepharose beads (Amersham Pharmacia) for 12 hours at 4° C., washed 3 times with RIPA buffer and subjected to SDS-PAGE on a 10% gel followed by western blotting using mouse monoclonal anti-p53 antibody, pAb421 or mouse monoclonal anti-acetylated lysine antibody.
(B) HeLa cells were treated as indicated, for 24 hours, histones were extracted and separated on an 18% acid/urea/triton (AUT) PAGE. The protein bands were visualized by Coomassie brilliant blue staining. […] Asterisk (*) indicates hyperacetylation of histones in response to HDAC inhibition by TSA and sodium butyrate. […] (C). The acid-extracted histones were resolved over 12% SDS-PAGE and were analyzed by western blot using antibodies against acetylated histone H3 and H4. […] The p53 protein was immunoprecipitated from the cell lysates using p53 monoclonal antibody and acetylation status was analyzed by western blotting. […]

[6] = system: HIV-1 (H9/HTLV-IIIb NIH 1983 cells cocultured with SupT1 cells); experiment: Syncytium inhibition assay; type: cell-based; settings: 12 h
Method: Syncytium inhibition assay: The cell lines SupT1 and H9/HTLV-IIIb NIH 1983 were obtained from The AIDS Research and Reference Reagent Program. H9/HTLV-IIIb NIH 1983 cells carrying a stably integrated provirus were cocultured with excess numbers of SupT1 cells at a ration of 1:200 or 1:400. A total of […] were seeded per well in a 24-well plate and cultured in RPMI medium supplemented with 10% fetal calf serum and antibiotics. […] All the wells received the same amount of DMSO including the control wells. Formation of syncytia was visible under light microscope within 12 hrs. The total number of syncytia in 10 representative wells was counted at different time points (12, 24 and 48 h) and data for 12 h time point are presented. Identical results were obtained at other time points. All the assays were performed in triplicate wells and the experiment was performed two times.
(A), H9/HTLV-IIIb NIH 1983 carrying stable integrated virus were cocultured with excess numbers of SupT1 cells at 1:200 or 1:400 ratio. A total of 0.1×10^6 cells were seeded per well. […] Formation of syncytia is visible under light microscope within 12 hrs. The total number of syncytia in 10 representative wells was counted and presented. The data are representative of 2 independent experiments.

[7] = system: p300 HAT activity dependent chromatin transcription; experiment: In vitro transcription from chromatin template; type: biochemical
Method: In Vitro Chromatin Assembly: Chromatin template for in vitro transcription experiments was assembled and characterized as described earlier (9).
as §4, with “C.” for “C. For loading control separate reaction was setup with ˜25 ng of supercoiled ML200 DNA, and the transcription assay was carried out as described above, without the addition of the activator (Gal4-VP16) and 2 μl of this reaction was added to each of the transcription reactions.”
as §5

SupT1 cells = experiment: Trypan blue exclusion analysis of viable cells; type: cell-based; settings: 100 μM curcumin, 48 hrs
Text: Various experimental formats have been used to evaluate infection of target cells by HIV or inhibition of the viral infection in the presence of an anti-viral compound (44, 45). The standard format is to add titered viral stock to the target cells at a known multiplicity of infection (MOI) in the presence or absence of an anti-viral compound and monitor the synthesis of the viral structural protein p24 or the enzyme reverse transcriptase (46, 47). In the natural context, the viral transfer is more efficient through cell-to-cell contact rather than free virus infecting a target cell. Prevention of the viral transfer between cells is technically more difficult than neutralizing the free virus. SupT1 cells are highly […] for HIV-1 and these cells make numerous and large syncytia when infected with the virus. Taking advantage of this property, we co-cultured SupT1 cells in the presence of H9/HTLV-IIIb NIH 1983 cells that produce a T-cell tropic virus. […] To rule out the possibility of cytotoxicity and cell death, we determined the number of viable cells in all the wells using a trypan blue exclusion analysis.

[8] = system: acetylation of histones in HeLa cells; experiment: In vivo histone acetylation in cells (AUT gel and western blotting); type: cell-based
Method: Acid/Urea/Triton (A UT) polyacrylamide gel electrophoresis and Western Blotting for in vivo acetylated histones: HeLa cells (3×10^6 cells per 90 mm dish) were seeded overnight and histones were extracted from 24 hours of compound treated cells as reported earlier (29,32). Briefly, cells were harvested, washed in ice-cold buffer A (150 mM KCl, 20 mM HEPES, pH 7.9, 0.1 mM EDTA and 2.5 mM MgCl2) and lysed in buffer A containing 250 mM sucrose and 1% (v/v) Triton X 100. Nuclei were recovered by centrifugation, washed, and proteins were extracted for 1 h using 0.25 M HCl. The proteins were precipitated with 25% (w/v) trichloroacetic acid (TCA) and sequentially washed with ice-cold acidified acetone (20 μl of 12N HCl in 100 ml acetone), and acetone, air-dried and dissolved in the sample buffer (5.8 M urea, 0.9 M glacial acetic acid, 16% glycerol, and 4.8% 2-mercaptoethanol). The histones (equal amounts in all lanes) were resolved on AUT gel as described elsewhere (33,34).
For western blotting, the quantitated protein samples were run on a 12% SDS-polyacrylamide gel and following electrophoresis, proteins on the gel were electrotransferred onto an immobilon membrane (PVDF; Millipore Corp., Bedford, Mass.). The membranes were then blocked in 5% skim milk powder solution in 1×PBS containing 0.05% Tween 20 and then immunoblotted with anti-acetyl H3 (Calbiochem), anti-acetyl H4 (a kind gift from Dr. Alaine Verrault) and anti-H3 respectively. Detection was performed using goat anti-rabbit secondary antibody (Bangalore Genei) and bands were visualized by ECL detection system (Pierce).
(B) HeLa cells were treated as indicated, for 24 hours, histones were extracted and separated on an 18% acid/urea/triton (AUT) PAGE. The protein bands were visualized by Coomassie brilliant blue staining. […] Asterisk (*) indicates hyperacetylation of histones in response to HDAC inhibition by TSA and sodium butyrate. […] (C). The acid-extracted histones were resolved over 12% SDS-PAGE and were analyzed by western blot using antibodies against acetylated histone H3 and H4. Loading and transfer of equal amounts of protein were confirmed by immunodetection of histone H3. (D) 293 T cells were transiently transfected with CMV-p53 and CMV-p300 either alone or in combination as indicated. […] The p53 protein was immunoprecipitated from the cell lysates using p53 monoclonal antibody and acetylation status was analyzed by western blotting. Lanes 1 and 4, transfection with p53 alone; lanes 2 and 5, co-transfection with p53 and p300; lanes 3 and 6, transfection with p300 alone. (IP:Immunoprecipitation and IB: Immunoblotting).

[9] = HeLa cells, TSA and sodium butyrate, with versus without curcumin (lane 5 versus 6)

Sequence of p300 (Q09472 whole entry, species assumed): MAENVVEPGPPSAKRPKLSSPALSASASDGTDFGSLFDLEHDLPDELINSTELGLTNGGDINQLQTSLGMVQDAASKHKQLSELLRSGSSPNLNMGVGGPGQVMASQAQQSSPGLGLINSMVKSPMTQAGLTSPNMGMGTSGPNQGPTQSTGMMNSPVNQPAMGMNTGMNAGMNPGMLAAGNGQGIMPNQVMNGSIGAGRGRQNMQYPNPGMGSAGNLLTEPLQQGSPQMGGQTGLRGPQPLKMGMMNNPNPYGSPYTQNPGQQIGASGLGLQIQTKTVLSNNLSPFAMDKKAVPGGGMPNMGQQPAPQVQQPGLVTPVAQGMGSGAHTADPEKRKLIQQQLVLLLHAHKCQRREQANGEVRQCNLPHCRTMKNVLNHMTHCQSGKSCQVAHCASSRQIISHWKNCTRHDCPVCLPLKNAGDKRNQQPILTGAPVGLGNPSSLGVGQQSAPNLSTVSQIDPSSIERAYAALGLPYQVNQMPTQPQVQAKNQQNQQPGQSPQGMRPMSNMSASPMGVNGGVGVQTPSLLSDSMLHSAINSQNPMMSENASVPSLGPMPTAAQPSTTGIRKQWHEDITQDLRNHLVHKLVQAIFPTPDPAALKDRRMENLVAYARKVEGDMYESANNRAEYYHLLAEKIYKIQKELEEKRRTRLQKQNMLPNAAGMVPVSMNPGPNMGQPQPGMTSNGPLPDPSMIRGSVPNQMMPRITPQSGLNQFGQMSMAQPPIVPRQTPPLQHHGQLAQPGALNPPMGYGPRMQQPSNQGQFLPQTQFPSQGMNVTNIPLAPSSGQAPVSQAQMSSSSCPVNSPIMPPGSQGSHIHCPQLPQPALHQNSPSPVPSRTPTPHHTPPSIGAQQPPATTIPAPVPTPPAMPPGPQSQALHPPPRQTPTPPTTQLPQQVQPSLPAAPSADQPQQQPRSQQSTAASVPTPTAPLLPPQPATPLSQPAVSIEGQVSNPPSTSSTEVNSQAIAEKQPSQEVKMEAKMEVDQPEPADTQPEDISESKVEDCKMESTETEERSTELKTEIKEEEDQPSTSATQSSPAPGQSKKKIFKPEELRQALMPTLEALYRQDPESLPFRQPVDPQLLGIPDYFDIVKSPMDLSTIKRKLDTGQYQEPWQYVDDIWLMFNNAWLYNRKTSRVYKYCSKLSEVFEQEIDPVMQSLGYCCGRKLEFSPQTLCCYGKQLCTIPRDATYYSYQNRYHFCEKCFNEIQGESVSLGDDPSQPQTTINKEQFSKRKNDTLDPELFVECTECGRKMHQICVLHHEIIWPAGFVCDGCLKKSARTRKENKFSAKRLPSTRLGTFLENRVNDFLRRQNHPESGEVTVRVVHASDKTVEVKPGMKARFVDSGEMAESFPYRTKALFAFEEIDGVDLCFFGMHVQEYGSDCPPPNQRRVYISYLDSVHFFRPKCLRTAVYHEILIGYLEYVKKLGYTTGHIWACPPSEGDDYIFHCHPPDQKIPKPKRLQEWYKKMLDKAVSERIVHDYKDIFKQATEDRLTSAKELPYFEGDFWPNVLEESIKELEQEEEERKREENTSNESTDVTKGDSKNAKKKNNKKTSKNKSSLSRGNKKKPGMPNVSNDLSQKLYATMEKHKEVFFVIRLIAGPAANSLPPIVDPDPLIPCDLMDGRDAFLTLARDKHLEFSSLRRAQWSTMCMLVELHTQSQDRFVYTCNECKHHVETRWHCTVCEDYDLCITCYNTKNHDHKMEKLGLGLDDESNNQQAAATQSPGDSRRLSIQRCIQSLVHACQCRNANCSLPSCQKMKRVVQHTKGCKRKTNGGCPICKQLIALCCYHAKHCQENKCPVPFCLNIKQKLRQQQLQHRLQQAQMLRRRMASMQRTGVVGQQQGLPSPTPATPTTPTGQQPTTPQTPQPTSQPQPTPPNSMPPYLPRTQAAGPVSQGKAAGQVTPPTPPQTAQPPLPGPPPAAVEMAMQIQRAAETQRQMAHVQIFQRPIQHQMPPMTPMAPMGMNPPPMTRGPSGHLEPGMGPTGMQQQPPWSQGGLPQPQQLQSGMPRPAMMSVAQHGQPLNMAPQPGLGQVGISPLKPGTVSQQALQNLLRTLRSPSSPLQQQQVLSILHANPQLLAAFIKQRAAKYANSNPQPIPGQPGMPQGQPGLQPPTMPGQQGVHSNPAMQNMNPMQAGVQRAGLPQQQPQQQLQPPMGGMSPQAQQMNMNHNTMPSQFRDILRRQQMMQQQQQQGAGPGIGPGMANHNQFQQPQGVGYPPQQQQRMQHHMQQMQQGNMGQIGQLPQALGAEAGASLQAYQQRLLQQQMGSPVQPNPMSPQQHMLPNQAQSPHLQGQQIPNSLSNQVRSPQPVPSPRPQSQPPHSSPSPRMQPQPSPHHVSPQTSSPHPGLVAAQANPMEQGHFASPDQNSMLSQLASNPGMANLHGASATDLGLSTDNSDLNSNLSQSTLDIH
T2 sequence (Q09472 whole entry, species assumed): as above
Sequence of CBP (Q92793 whole entry): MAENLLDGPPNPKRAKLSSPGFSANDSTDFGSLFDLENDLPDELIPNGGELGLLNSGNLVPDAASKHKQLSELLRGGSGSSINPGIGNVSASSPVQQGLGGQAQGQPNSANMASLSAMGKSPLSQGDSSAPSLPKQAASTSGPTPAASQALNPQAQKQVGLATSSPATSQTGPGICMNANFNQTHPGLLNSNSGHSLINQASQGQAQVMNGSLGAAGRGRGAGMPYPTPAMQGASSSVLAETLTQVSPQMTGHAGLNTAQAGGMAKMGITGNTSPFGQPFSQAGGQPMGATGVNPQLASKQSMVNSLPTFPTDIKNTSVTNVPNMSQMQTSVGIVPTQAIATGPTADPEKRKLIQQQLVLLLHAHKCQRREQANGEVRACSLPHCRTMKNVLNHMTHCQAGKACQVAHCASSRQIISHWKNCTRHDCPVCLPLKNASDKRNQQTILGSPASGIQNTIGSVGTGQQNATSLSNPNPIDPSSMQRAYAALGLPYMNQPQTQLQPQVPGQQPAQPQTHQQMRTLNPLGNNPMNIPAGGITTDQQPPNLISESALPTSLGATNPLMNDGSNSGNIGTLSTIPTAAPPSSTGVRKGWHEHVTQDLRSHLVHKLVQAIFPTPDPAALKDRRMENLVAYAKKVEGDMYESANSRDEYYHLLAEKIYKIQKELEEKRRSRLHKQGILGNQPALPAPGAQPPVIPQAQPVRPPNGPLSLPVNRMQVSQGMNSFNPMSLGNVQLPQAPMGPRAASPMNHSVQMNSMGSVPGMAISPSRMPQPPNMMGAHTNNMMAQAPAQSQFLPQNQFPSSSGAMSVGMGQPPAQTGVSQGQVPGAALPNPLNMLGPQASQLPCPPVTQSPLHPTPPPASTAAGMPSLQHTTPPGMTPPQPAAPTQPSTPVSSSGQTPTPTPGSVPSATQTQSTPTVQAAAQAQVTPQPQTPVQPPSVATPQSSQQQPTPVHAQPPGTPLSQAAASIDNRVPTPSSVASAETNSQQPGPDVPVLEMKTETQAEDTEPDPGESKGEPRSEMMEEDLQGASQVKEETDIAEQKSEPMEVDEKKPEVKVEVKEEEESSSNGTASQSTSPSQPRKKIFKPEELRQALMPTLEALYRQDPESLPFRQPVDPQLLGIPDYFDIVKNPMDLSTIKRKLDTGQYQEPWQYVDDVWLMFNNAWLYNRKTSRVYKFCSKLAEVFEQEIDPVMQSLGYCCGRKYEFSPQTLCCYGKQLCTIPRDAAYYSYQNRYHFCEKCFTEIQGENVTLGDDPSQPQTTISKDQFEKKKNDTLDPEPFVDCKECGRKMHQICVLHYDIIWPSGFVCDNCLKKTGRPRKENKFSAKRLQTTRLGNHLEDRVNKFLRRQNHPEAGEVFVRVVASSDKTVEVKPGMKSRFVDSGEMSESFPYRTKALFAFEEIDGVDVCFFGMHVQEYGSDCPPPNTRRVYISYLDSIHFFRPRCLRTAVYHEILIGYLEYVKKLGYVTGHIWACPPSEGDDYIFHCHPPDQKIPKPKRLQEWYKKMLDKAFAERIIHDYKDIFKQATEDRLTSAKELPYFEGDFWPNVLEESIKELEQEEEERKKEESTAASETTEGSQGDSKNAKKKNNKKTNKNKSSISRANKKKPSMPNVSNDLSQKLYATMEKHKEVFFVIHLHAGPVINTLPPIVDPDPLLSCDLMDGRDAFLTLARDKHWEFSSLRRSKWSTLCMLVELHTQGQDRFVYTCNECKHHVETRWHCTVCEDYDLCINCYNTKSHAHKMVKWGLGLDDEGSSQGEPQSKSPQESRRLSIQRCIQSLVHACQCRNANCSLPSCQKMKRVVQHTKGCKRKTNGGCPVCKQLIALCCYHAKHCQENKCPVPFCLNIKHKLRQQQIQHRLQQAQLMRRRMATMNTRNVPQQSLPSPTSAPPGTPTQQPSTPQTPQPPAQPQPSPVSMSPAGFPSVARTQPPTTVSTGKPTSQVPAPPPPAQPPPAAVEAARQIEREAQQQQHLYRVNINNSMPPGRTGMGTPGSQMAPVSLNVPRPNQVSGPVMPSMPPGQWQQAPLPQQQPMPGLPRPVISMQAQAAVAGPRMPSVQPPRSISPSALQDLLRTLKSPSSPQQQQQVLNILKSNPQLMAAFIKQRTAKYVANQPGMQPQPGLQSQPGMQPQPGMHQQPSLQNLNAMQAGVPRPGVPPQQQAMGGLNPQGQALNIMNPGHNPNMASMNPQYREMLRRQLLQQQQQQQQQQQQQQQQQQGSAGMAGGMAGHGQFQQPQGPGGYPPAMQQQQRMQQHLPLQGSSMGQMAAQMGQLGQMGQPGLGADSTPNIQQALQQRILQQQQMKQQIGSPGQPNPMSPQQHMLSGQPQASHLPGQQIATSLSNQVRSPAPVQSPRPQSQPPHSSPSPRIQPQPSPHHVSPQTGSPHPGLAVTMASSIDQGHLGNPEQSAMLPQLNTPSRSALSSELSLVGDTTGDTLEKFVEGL

COc1cc(/C=C/C(=O)CC(=O)/C=C/c2ccc(O)c(OC)c2)ccc1O [curcumin]
apoptosis (nuclear fragmentation) (HeLa cells): induces the apoptosis
PCAF HAT activity (PCAF): no change
methylation of core histones by HeLa nuclear extract (NE) [1]: no difference
Kcat of p300 HAT activity (p300): decreased
Km of p300 HAT activity (p300): decreased
Vmax of p300 HAT activity (p300): decreased
histone methylation by G9a [2]: remains same
inhibition of CBP HAT activity (CBP): potent and specific inhibitor
acetylation of Tat by p300 in vitro [3]: strongly inhibits
transcription from the DNA template [4]: not affected
p300-mediated acetylation of p53 ([5]; 293 T cells transfected with p53 and p300, 100 μM curcumin): completely inhibits
acetylation status of the endogenous p53 ([5]; 293 T cells transfected with p300 alone, 100 μM curcumin): not altered
number of syncytia ([6]; highest concentration of curcumin): no syncytia were seen
number of syncytia ([6]; increasing concentration of curcumin): dose-dependent reduction
repression of p300 HAT activity dependent chromatin transcription ([7]; 100 μM): ≤ 3 fold
repression of p300 HAT activity dependent chromatin transcription ([7]; 300 μM): ≤ 8 fold
cytotoxicity (viable cells, trypan blue exclusion) (SupT1 cells): not cytotoxic
acetylation of histones (AUT gel) ([8]; HeLa cells hyperacetylated with TSA and sodium butyrate, 100 μM curcumin): inhibited
unacetylated form of histone H4 and H2B (AUT gel) ([8]; HeLa cells, 75 and 100 μM curcumin, 24 hours): modestly increased
inhibition of H3 acetylation (western blotting) [8, 9]: 6 fold
inhibition of H4 acetylation (western blotting) [8, 9]: 10 fold
